Where two headings read alike, the source gives them in different places.
Assays:
[1] = Examination of properties of SUN N8075 itself; type: physicochemical; details: pH around neutrality
[2] = Examination of solubilizing agent: solubility of SUN N8075 (Test example 1); type: physicochemical; details: for solubility at 30 min: phosphate-buffered saline with solubilizing agent, 24 °C, kinetic from dmso stock, read-out: Concentration (solubility of SUN N8075)
Protocol: 8 mg/mL aqueous solution of SUN N8075 was prepared. On the other hand, for each solubilizing agent, an aqueous solution having approximately 0.4% of solubilizing agent was prepared.
10 mL of SUN N8075 aqueous solution and 10 mL of solution of each solubilizing agent were mixed to give Mixture A, and Mixture A was filtered through a filter of 0.22 μm.
6.24 g of sodium dihydrogen phosphate and 16.4 g of sodium chloride were weighed and water was added to make the volume precisely 1,000 mL. To this solution, 1 mol/L sodium hydroxide test solution was added dropwise and the pH value was adjusted to 7.4, which was named Mixture B.
Mixture of each 2.5 mL of Mixture A and Mixture B was provided as a test solution (in each test solution, the concentration of SUN N8075 corresponds to 2 mg/mL, and the concentration of solubilizing agent corresponds to 0.1%).
As for a solubilizing agent of which degree of improving solubility of SUN N8075 was high, tests with concentrations of the added solubilizing agent varied were additionally executed in accordance with the method as described above.

[3] = Examination on two-component antioxidant sodium bisulfite/L-cysteine hydrochloride monohydrate (Test example 6); type: physicochemical
Protocol: According to the formulation of Tables 7 and 8, to 100-150 mL of purified water, sodium bisulfite (Japanese Pharmacopoeia; available from JUNSEI CHEMICAL), L-cysteine hydrochloride monohydrate (available from Nacalai Tesque), and SUN N8075 were added and dissolved in this order, and the volume was made precisely to 200 mL by addition of purified water.
After filtering under reduced pressure, the solution was bubbled with nitrogen gas for 5 minutes (not executed for the case “without nitrogen gas replacement”), and 20 mL of the solution was immediately filled into a brown ampule (Silicoat ampule, brown, 20 mL capacity, available from FUJI GLASS CO., LTD.) replaced with nitrogen gas (not executed for the case “without nitrogen gas replacement”), and then the ampule was sealed. Using autoclave (FLC-M09S30WZ, available from SAKURA SEIKI Co., Ltd.), autoclave sterilization was conducted in a setting condition: 121° C./24 minutes.
For each sample, insoluble foreign matters and odor were evaluated.
Evaluation of insoluble foreign matters was conducted using an appearance checker (under 1,000 Lux).
Also dissolved oxygen concentration in solution was measured.

[4] = Reduction in surface activity in SUN N8075 aqueous solution (Test example 7); type: physicochemical; set-up: key: A: In 20 minutes; B: In 60 minutes; C: 60 minutes to 3 days; D: Comparable to Control
Protocol: Into each test compound solution which was prepared in advance to achieve each adding concentration shown in the Table, SUN N8075 was added and dissolved so that the concentration thereof was 5 mg/mL, and the pH value was adjusted to 3 to 4 as appropriate by hydrochloric acid to prepare a sample solution.
Each 10 mL of sample solution was put into a 10-mL stoppered test tube, and shaken 30 strokes vertically by hand and allowed to stand upright, and under room diffused light, appearance of sample solution after shaking, foaming property (foaming quantity), defoaming time, post standing observation (after standing for 3 days or more) were evaluated.
As a control, an aqueous solution containing no test substance but containing 5 mg/mL of SUN N8075 was examined in a similar manner.

aorta of rat = test: Blood vessel stimulus and precipitation at administration site (Test example 2); type: in vivo
Protocol: Saline, a solution in saline to which 0.1% of Tween80 was added, and a solution in saline to which 0.5, 1.0, 2.0 or 3.0% of β-cyclodextrin sulfobutyl ether sodium salt dissolving various concentrations described in Table 2 below of SUN N8075 were prepared, and administered to aorta of rat, and precipitation of SUN N8075 and presence of stimulus (blood vessel stimulus) on tissues at the site of administration were evaluated.

[5] = sodium bisulfite 0.05% (0.1 g), L-cysteine HCl monohydrate 0.05 g (ratio 1/2), N2 done, dissolved oxygen 0.91 ppm
[6] = sodium bisulfite 0.05% (0.1 g), L-cysteine HCl monohydrate 0.1 g (ratio 1/1), N2 done, dissolved oxygen 0.88 ppm
[7] = sodium bisulfite 0.075% (0.15 g), L-cysteine HCl monohydrate 0.1 g (ratio 2/3), N2 done, dissolved oxygen 1.66 ppm
[8] = sodium bisulfite 0.075% (0.15 g), L-cysteine HCl monohydrate 0.5 g (ratio 1/1), N2 done, dissolved oxygen 0.97 ppm
[9] = sodium bisulfite 0.1% (0.2 g), L-cysteine HCl monohydrate 0.1 g (ratio 1/2), N2 done, dissolved oxygen 1.27 ppm
[10] = sodium bisulfite […] (0.05 g), L-cysteine HCl monohydrate 0.05 g (ratio 1/1), N2 done, dissolved oxygen 0.82 ppm
[11] = 0.1% Tween80 in saline, drug conc. 0.23 mg/mL, 72 hour
[12] = 0.1% Tween80 in saline, drug conc. 0.7 mg/mL, 72 hour
[13] = 0.5% Captisol in saline, drug conc. 0.7 mg/mL, 24 hour
[14] = 1.0% Captisol in saline, drug conc. 0.7 mg/mL, 24 hour
[15] = 2.0% Captisol in saline, drug conc. 0.7 mg/mL, 24 hour
[16] = 3.0% Captisol in saline, drug conc. 0.23 mg/mL, 72 hour
[17] = 3.0% Captisol in saline, drug conc. 0.7 mg/mL, 72 hour
[18] = no solubilizing agent in saline, drug conc. 0.23 mg/mL, 72 hour
[19] = no solubilizing agent in saline, drug conc. 0.7 mg/mL, 72 hour
[20] = no solubilizing agent in saline, drug conc. 2.3 mg/mL, 72 hour

## Cc1cc(OC[C@@H](O)CN2CCN(c3ccc(Cc4ccc(F)cc4)cc3)CC2)c(C)c(C)c1N [SUN N8075, (2S)-1-(4-amino-2,3,5-trimethylphenoxy)-3-{4-[4-(4-fluorobenzyl)phenyl]-1-piperazinyl}-2-propanol dimethane sulfonate]
[1]
  Solubility: very low
[2]; Glycerin 0.1%, pH 6.8
  Appearance of solution: colorless and clear
[2]; HCO-60 0.1%, pH 6.8
  Appearance of solution: colorless and clear
[2]; HCO-60 0.2%, pH 6.9
  Appearance of solution: colorless and clear
[2]; HCO-60 0.5%, pH 6.8
  Appearance of solution: colorless and clear
[2]; Human serum albumin 0.1%, pH 6.8
  Appearance of solution: colorless and clear
[2]; Macrogol 4000 0.1%, pH 6.8
  Appearance of solution: colorless and clear
[2]; Mannitol 0.1%, pH 6.8
  Appearance of solution: colorless and clear
[2]; Nicotinic amide 0.1%, pH 6.8
  Appearance of solution: colorless and clear
[2]; No additive, pH 6.8
  Appearance of solution: colorless and clear
[2]; Propylene glycol 0.1%, pH 6.9
  Appearance of solution: colorless and clear
[2]; Tween80 0.1%, pH 6.8
  Appearance of solution: clouded
[2]; Tween80 0.2%, pH 6.8
  Appearance of solution: clouded
[2]; Tween80 0.5%, pH 6.8
  Appearance of solution: clouded
[2]; Tween80 1.0%, pH 6.8
  Appearance of solution: colorless and clear
[2]; pH 6.5, aqueous with cosolvent or surfactant or cyclodextrin, β-Cyclodextrin derivative 10%, pH 6.5
  solubility at 30 min: 4850 µg/mL
[2]; pH 6.8, aqueous with cosolvent or surfactant or cyclodextrin, HCO-60 0.5%, pH 6.8
  solubility at 30 min: 395 µg/mL
[2]; pH 6.8, aqueous with cosolvent or surfactant or cyclodextrin, HCO-60 (polyoxyethylene hardened castor oil) 0.1%, pH 6.8
  solubility at 30 min: 184 µg/mL
[2]; pH 6.8, aqueous with cosolvent or surfactant or cyclodextrin, Human serum albumin 0.1%, pH 6.8
  solubility at 30 min: 14 µg/mL
[2]; pH 6.8, aqueous with cosolvent or surfactant or cyclodextrin, Tween80 0.1%, pH 6.8
  solubility at 30 min: 745 µg/mL
[2]; pH 6.8, aqueous with cosolvent or surfactant or cyclodextrin, Tween80 0.2%, pH 6.8
  solubility at 30 min: 1830 µg/mL
[2]; pH 6.8, aqueous with cosolvent or surfactant or cyclodextrin, Tween80 0.5%, pH 6.8
  solubility at 30 min: 1790 µg/mL
[2]; pH 6.8, aqueous with cosolvent or surfactant or cyclodextrin, Tween80 1.0%, pH 6.8
  solubility at 30 min: 1820 µg/mL
[2]; pH 6.8, aqueous with cosolvent or surfactant or cyclodextrin, β-Cyclodextrin derivative 0.5%, pH 6.8
  solubility at 30 min: 98 µg/mL
[2]; pH 6.8, aqueous with cosolvent or surfactant or cyclodextrin, β-Cyclodextrin derivative 1.0%, pH 6.8
  solubility at 30 min: 240 µg/mL
[2]; pH 6.9, aqueous with cosolvent or surfactant or cyclodextrin, HCO-60 0.2%, pH 6.9
  solubility at 30 min: 334 µg/mL
[2]; pH 6.9, aqueous with cosolvent or surfactant or cyclodextrin, β-Cyclodextrin 0.1%, pH 6.9
  solubility at 30 min: 26 µg/mL
[2]; pH 6.9, aqueous with cosolvent or surfactant or cyclodextrin, β-Cyclodextrin derivative 5.0%, pH 6.9
  solubility at 30 min: 1420 µg/mL
[2]; β-Cyclodextrin 0.1%, pH 6.9
  Appearance of solution: colorless and clear
[2]; β-Cyclodextrin derivative 0.5%, pH 6.8
  Appearance of solution: colorless and clear
[2]; β-Cyclodextrin derivative 1.0%, pH 6.8
  Appearance of solution: colorless and clear
[2]; β-Cyclodextrin derivative 5.0%, pH 6.9
  Appearance of solution: colorless and clear
[2]; β-Cyclodextrin derivative 10%, pH 6.5
  Appearance of solution: colorless and clear
[2]; β-Cyclodextrin derivative (β-cyclodextrin sulfobutyl ether sodium salt) 0.1%, pH 6.8
  Appearance of solution: colorless and clear
[3]; sodium bisulfite 0.05% (0.1 g), L-cysteine HCl monohydrate 0.03 g (ratio 3/10), N2 done, dissolved oxygen 1.85 ppm
  Amount of insoluble matters/after sterilization: bit
[3]; [5]
  Amount of insoluble matters/after sterilization: great
  Odor/After sterilization: Sulfur-
[3]; [6]
  Amount of insoluble matters/after sterilization: great
  Odor/After sterilization: Sulfur-
[3]; sodium bisulfite 0.05% (0.1 g), no L-cysteine HCl monohydrate, N2 done, dissolved oxygen 0.82 ppm
  Amount of insoluble matters/after sterilization: bit
[3]; sodium bisulfite 0.075% (0.15 g), L-cysteine HCl monohydrate 0.05 g (ratio 1/3), N2 done, dissolved oxygen 1.39 ppm
  Amount of insoluble matters/after sterilization: Bit
[3]; [7]
  Amount of insoluble matters/after sterilization: great
  Odor/After sterilization: Sulfur-
[3]; [8]
  Amount of insoluble matters/after sterilization: great
  Odor/After sterilization: Sulfur-
[3]; sodium bisulfite 0.075% (0.15 g), no L-cysteine HCl monohydrate, N2 done, dissolved oxygen 1.24 ppm
  Amount of insoluble matters/after sterilization: bit
[3]; [9]
  Amount of insoluble matters/after sterilization: great
  Odor/After sterilization: Sulfur
[3]; sodium bisulfite 0.1% (0.2 g), no L-cysteine HCl monohydrate, N2 done, dissolved oxygen 1.39 ppm
  Amount of insoluble matters/after sterilization: bit
[3]; sodium bisulfite 0.1% (0.2 g), no L-cysteine HCl monohydrate, N2 not done, dissolved oxygen 5.14 ppm
  Amount of insoluble matters/after sterilization: bit
[3]; sodium bisulfite […] (0.05 g), L-cysteine HCl monohydrate 0.015 g (ratio 3/10), N2 done, dissolved oxygen 1.88 ppm
  Amount of insoluble matters/after sterilization: Bit
[3]; [10]
  Amount of insoluble matters/after sterilization: great
  Odor/After sterilization: Sulfur-
[3]; sodium bisulfite […] (0.05 g), no L-cysteine HCl monohydrate, N2 done, dissolved oxygen 0.52 ppm
  Amount of insoluble matters/after sterilization: bit
[4]; Chlorobutanol 0.50%
  Defoaming time: C
[4]; Chlorobutanol […]
  Defoaming time: C
[4]; Ethanol 1.00%
  Defoaming time: C
[4]; Glycine 100 mM
  Defoaming time: C
[4]; Meglumine 25 mM
  Defoaming time: C
[4]; Methane sulfonic acid 15 mM
  Defoaming time: C
[4]; Propylene glycol 1.00%
  Defoaming time: C
[4]; Sodium L-glutamate 30 mM
  Defoaming time: C
[4]; Sodium chloride 50 mM
  Defoaming time: C
Aorta of rat; [11]
  Blood vessel stimulation: Detected
  Precipitation at administration site: None*^2
Aorta of rat; [12]
  Blood vessel stimulation: Detected
  Precipitation at administration site: None*^2
Aorta of rat; [13]
  Blood vessel stimulation: None
  Precipitation at administration site: None*^2
Aorta of rat; [14]
  Blood vessel stimulation: None
  Precipitation at administration site: None*^2
Aorta of rat; [15]
  Blood vessel stimulation: None
  Precipitation at administration site: None*^2
Aorta of rat; [16]
  Blood vessel stimulation: None
  Precipitation at administration site: None*^2
Aorta of rat; [17]
  Blood vessel stimulation: None
  Precipitation at administration site: None*^2
Aorta of rat; [18]
  Blood vessel stimulation: Detected
  Precipitation at administration site: Detected*^1
Aorta of rat; [19]
  Blood vessel stimulation: Detected
  Precipitation at administration site: Detected*^1
Aorta of rat; [20]
  Blood vessel stimulation: Detected
  Precipitation at administration site: Detected*^1
